# Measurements taken from article PMC10258243, “Identification and characterization of novel marine oxasqualenoid yucatecone against Naegleria fowleri” (International Journal for Parasitology: Drugs and Drug …, 2023).
# Like-named read-outs stand apart in the source and are kept apart here.
# What was measured:
# [1] = alamarBlue cytotoxicity assay; type: cell-based; conditions: mouse, J774A.1, 24 h, mean ± SD, read-out: Murine macrophages CC50
# Description: (§1) The activity evaluation of the molecules was carried out in two different N. fowleri strains (ATCC® 30808™ and ATCC® 30215™) from the American Type Culture Collection (LG Promochem, Barcelona, Spain). The cytotoxicity of the compounds was evaluated using a murine macrophages cell line (ATCC® TIB-67). Cells were grown as previously described ([Rizo-Liendo et al., 2020]).
# In order to evaluate the cytotoxicity of the compounds a murine macrophages cell line (ATCC® TIB-67) was used. A known concentration of cells (10^5 cells/mL) was incubated with serial dilutions of the molecules. After that, the alamarBlue® reagent was added and the plates were incubated for 24 h at 37 °C and in a 5% of CO2 atmosphere ([Arberas-Jiménez et al., 2020]). The same alamarBlue® based protocol described in the section above was assessed to obtain de cytotoxic concentration 50 (CC50).
# N. fowleri ATCC® 30215™ = assay: alamarBlue colorimetric activity assay, trophozoites; type: cell-based, Naegleria fowleri; conditions: for IC50: Naegleria fowleri, read-out: N. fowleri ATCC® 30215™ IC50; for N. fowleri ATCC® 30215™ SI (CC50/IC50): selectivity index
# Description: as §1
# (§2) A colorimetric assay based on the alamarBlue® reagent was performed to evaluate the activity of the compounds in two different N. fowleri strains (ATCC® 30808™ and ATCC® 30215™). The same protocol optimized by Rizo-Liendo et al. was followed in these assays ([Rizo-Liendo et al., 2019]). Briefly, N. fowleri trophozoites (2 × 10^5 cells/mL) were incubated with serial dilutions (in the same culture media) of the compounds in a 96 well microtiter plate. Next, the alamarBlue® reagent was added and the plates were incubated at 37 °C. After 48 h, the fluorescence was read in an EnSpire Multimode Plate Reader (Perkin Elmer, Madrid, Spain) using a wavelength of excitation of 570 nm and a wavelength of emission of 585 nm.
# (§3) All experiments were carried out in triplicate and mean values were also calculated.
# N. fowleri ATCC® 30808™ = assay: as above; type: cell-based, Naegleria fowleri; conditions: for IC50: Naegleria fowleri, read-out: N. fowleri ATCC® 30808™ IC50; for N. fowleri ATCC® 30808™ SI (CC50/IC50): selectivity index
# Description: as §1, §2, §3
# [2] = system: N. fowleri ATCC® 30808™ trophozoites; assay: JC-1 mitochondrial membrane potential; type: cell-based, Naegleria fowleri; conditions: IC50 and IC90 of compound, 24 h
# Description: (§4) The aim of these assays was to evaluate the presence of different metabolic events that are shown in programmed cell death like process (PCD-like) undergoing cells. […] After the treatment of the cells with these concentrations of the molecules, a 50% and a 10%, respectively, of the amoebae in the well remain as viable. Finally, the protocol for each kit was performed following manufacturers’ instructions. Moreover, the percentage of stained cells after the incubation of the treated and non-treated cells with each kit and the ratio of fluorescence between the aggregate and monomer forms of the JC-1 was evaluated. For this, the EVOS M5000 Cell Imaging System (Life Technologies, Madrid, Spain) was used and each experiment was performed in triplicate. In each experiment five different images were evaluated with a minimum number of cells of 80.
# The mitochondrial membrane potential decrease was determined using the JC-1 Mitochondrial Membrane Potential Assay Kit (Cayman Chemicals, Vitro SA, Madrid, Spain). The JC-1 dye presents potential-dependent accumulation in mitochondria. At high membrane potentials (healthy cells) JC-1 dye accumulates as “J-aggregates” in the mitochondria and emits red fluorescence whereas at low membrane potentials (cells undergoing PCD-like responses) the dye is presented in monomeric form in the cytoplasm, emitting green fluorescence. […]
# [3] = system: N. fowleri ATCC® 30808™ trophozoites; assay: SYTOX Green plasmatic membrane permeability; type: cell-based, Naegleria fowleri; conditions: IC50 and IC90 of compound, 24 h
# Description: as §4
# The SYTOX Green kit (Life Technologies, Madrid, Spain) was used for the evaluation of the cellular plasmatic membrane damage. This stain binds to the DNA of those cells who have suffered alterations in the permeability of the plasmatic membrane and emits a high green fluorescence. […] This assay was performed following manufacturer's instruction and modified by [Sifaoui et al. (2018)]. An EVOS M5000 Cell Imaging System (Life Technologies, Madrid, Spain) was used to obtain the images.
# [4] = system: Cysts of N. fowleri ATCC® 30808™; assay: alamarBlue activity assay against cysts; type: cell-based; conditions: Naegleria fowleri, ATCC30808, read-out: IC50 against N. fowleri cysts
# Description: Cysts of N. fowleri ATCC® 30808™ strain were used in these assays. Cysts were obtained as previously described and performing the protocol optimized by our group ([Arberas-Jiménez et al., 2022]). Mature cysts (2 × 10^5 cells/mL) were incubated with serial dilutions of yucatecone during 24 h at 37 °C. Subsequently, the media was removed and fresh bactocasitone was added with the aim to facilitate the excystation. Finally, the alamarBlue® reagent was added and the plates were incubated for 72 more hours at 37 °C prior to reading the fluorescence and determining the IC50 as described in section 2.4.
# [5] = system: N. fowleri ATCC® 30808™ trophozoites; assay: CellROX Deep Red intracellular ROS; type: cell-based, Naegleria fowleri; conditions: IC50 and IC90 of compound, 24 h
# Description: as §4
# The CellROX Deep Red fluorescent assay (Invitrogen, Termo Fisher Scientifc, Madrid, Spain) was used to perform the ROS levels evaluation. After the cell incubation with the yucatecone the stain was added and incubated for half an hour in the dark. Finally, images were obtained with an EVOS M5000 Cell Imaging System (Life Technologies, Madrid, Spain). The presence of ROS is detected by intense red fluorescence.
# N. fowleri trophozoites = assay: Celltiter-Glo ATP level measurement; type: cell-based, Naegleria fowleri
# Description: as §4
# The ATP level measurement was performed with the Celltiter-Glo® Luminescent Cell Viability Assay (Promega Biotech Ibérica, Madrid, Spain). […]
# [6] = system: N. fowleri ATCC® 30808™ trophozoites; assay: Hoechst 33342/propidium iodide double stain for chromatin condensation; type: cell-based, Naegleria fowleri; conditions: IC50 and IC90 of compound, 24 h
# Description: as §4
# A double stain detection kit Hoechst 33342/propidium iodide (PI) (Life Technologies, Madrid, Spain) and an EVOS M5000 Cell Imaging System (Life Technologies, Madrid, Spain) were used in this experiment. The assay was performed following manufacturer's instruction.
# This kit enables to distinguish between three different group of cells: A light blue fluorescence corresponds to live cells whereas in the treated cells an intense blue fluorescence is shown. Finally, red fluorescence appears in dead cells as the IP binds to their DNA.
# [7] = ATCC30215, trophozoite stage, 48 h, mean ± SD, triplicate
# [8] = ATCC30808, trophozoite stage, 48 h, mean ± SD, triplicate, N/A = no activity observed
IC50 (N. fowleri ATCC® 30215™; [7]) [µM],IC50 (N. fowleri ATCC® 30808™; [8]) [µM],Structure (SMILES),CC50 at 24 h [1] [µM],N. fowleri ATCC® 30215™ SI (CC50/IC50) (N. fowleri ATCC® 30215™),N. fowleri ATCC® 30808™ SI (CC50/IC50) (N. fowleri ATCC® 30808™),CC50 at 24 h ([1]; J774A.1 murine macrophage cell line (ATCC TIB-67)) [µM],mitochondrial membrane potential (JC-1) [2],plasma membrane permeability (SYTOX Green) [3],IC50 [4] [µM],"IC50 (N. fowleri ATCC® 30215™; ATCC30215, 48 h) [µM]","IC50 (N. fowleri ATCC® 30808™; ATCC30808, 48 h) [µM]",N. fowleri ATCC® 30808™ SI (CC50/IC50) (N. fowleri ATCC® 30808™; listed as Yucatecone),intracellular ROS level (CellROX Deep Red) [5],"decrease of ATP production (N. fowleri trophozoites; treated with the IC50, compared to negative control) [%]","decrease of ATP production (N. fowleri trophozoites; treated with the IC90, compared to negative control) [%]",chromatin condensation (Hoechst 33342) [6],propidium iodide staining [6]
0.16 ± 0.02,0.12 ± 0.03,"C[C@@H]1[C@H](O)[C@@H](C)/C=C/C=C/C=C/C=C/C=C/C=C/C=C/[C@H](O[C@@H]2O[C@H](C)[C@@H](O)[C@H](N)[C@@H]2O)C[C@@H]2O[C@](O)(C[C@@H](O)C[C@@H](O)[C@H](O)CC[C@@H](O)C[C@@H](O)CC(=O)O[C@H]1C)C[C@H](O)[C@H]2C(=O)O [Amphotericin B, reference compound]",,>1204.82,>1652.89,> 200,,,,,,,,,,,
81.6 ± 7.23,38.7 ± 4.23,"CCCCCCCCCCCCCCCCOP(=O)([O-])OCC[N+](C)(C)C [Miltefosine, reference compound]",,1.57,3.30,,,,,,,,,,,,
,,"CC(CCC(=O)C1(C)CCC(C(C)(C)O)O1)C1CCC2OC(C3(C)CCC(Br)C(C)(C)O3)CCC2(C)O1 (stereo not shown) [Yucatecone (4), yucatecone]",> 85,>5.23,>2.98,,induces the depolarization of the mitochondrial membrane potential,caused plasma membrane permeabilty damage,9.43 ± 1.48,16.2 ± 1.23,28.5 ± 5.04,> 2.98,increased the intracellular ROS level production,54.80,90.44,induces chromatin condensation,no fluorescence is shown

Structure (SMILES),IC50 (N. fowleri ATCC® 30215™; [7]) [µM],IC50 (N. fowleri ATCC® 30808™; [8]) [µM],CC50 at 24 h [1] [µM],N. fowleri ATCC® 30215™ SI (CC50/IC50) (N. fowleri ATCC® 30215™),N. fowleri ATCC® 30808™ SI (CC50/IC50) (N. fowleri ATCC® 30808™),CC50 at 24 h ([1]; J774A.1 murine macrophage cell line (ATCC TIB-67)) [µM],mitochondrial membrane potential (JC-1) [2],plasma membrane permeability (SYTOX Green) [3],IC50 [4] [µM],"IC50 (N. fowleri ATCC® 30215™; ATCC30215, 48 h) [µM]","IC50 (N. fowleri ATCC® 30808™; ATCC30808, 48 h) [µM]",N. fowleri ATCC® 30808™ SI (CC50/IC50) (N. fowleri ATCC® 30808™; listed as Yucatecone),intracellular ROS level (CellROX Deep Red) [5],"decrease of ATP production (N. fowleri trophozoites; treated with the IC50, compared to negative control) [%]","decrease of ATP production (N. fowleri trophozoites; treated with the IC90, compared to negative control) [%]",chromatin condensation (Hoechst 33342) [6],propidium iodide staining [6]
"C=C(CCC(=O)C1(C)CCC(C(C)(C)O)O1)C1CCC2OC(C3(C)CCC(Br)C(C)(C)O3)CCC2(C)O1 (stereo not shown) [18-KetoDT (6), 18-ketodehydrothyrsiferol]",12.7 ± 2.64,15.3 ± 2.82,40 ± 1.06,3.17,2.61,,,,,,,,,,,,
